Assays:
pH1 stability = assay type: physicochemical; conditions: pH 1 buffer, 4 h at 37° C.
Protocol: Ca. 25 mg of each of the salts were weighed into a 2 mL HPLC vial prior to the addition of 1 mL of pH 1 buffer. The samples were then shaken for 4 h at 37° C. before being filtered into SPE cartridges and dried overnight.

[1] = Stability at 40° C./75% RH; assay type: physicochemical
[2] = Dynamic vapor sorption (DVS); assay type: physicochemical
Protocol: SMS DVS Intrinsic dynamic vapour sorption instrument using DVS-Intrinsic control software v1.0.6.0. Analysis of the data was performed using the DVS analysis suite v7.0.13.1 macro program embedded in Microsoft Excel. Analysis was performed as a wt % change from 0-90% RH with isothermal plots also being examined.
Ca. 10-15 mg of sample was weighed into a stainless steel DVS basket before submitting for analysis. The samples were analysed over the range of 0-90% RH with a maximum time of 6 hours per humidity stage. Each sample was exposed to a double cycle. XRPD analysis of all samples was performed post-DVS.

[3] = Aqueous solubility assessment of salt screen solids (visual); conditions: Ca. 5 mg in up to 4000 μL water (1.25 mg/ml), shaken overnight at 50° C.; for Solubility assessment (dissolution in deionized water), salt from DIPE: salt prepared from DIPE; for Solubility assessment (dissolution in deionized water), salt From Ethanol: salt prepared from ethanol
Protocol: Aqueous solubility assessment was performed using Ca. […] These samples were added to aliquots of deionized water up to a maximum of 4000 μL with the samples being shaken between additions to encourage dissolution prior to a visual inspection.

[4] = Solubility screen of the free acid in various solvents (incremental solvent addition, visual); assay type: physicochemical; conditions: Ca. 10 mg free acid
Source text: The free base (or zwitterionic) Compound 1 can be dissolved in unbuffered water, a range of organic solvents, mixtures of organic solvents and mixtures of solvents with unbuffered water. The solvents assessed were 1,1-dimethoxyethane, acetonitrile, ethanol, 1,2-dichloroethane, benzonitrile, ethyl acetate, 1,4-dioxane, anisole, heptane, 2-butanol, cumene, hexane, 2-propanol, cyclohexane, isopropyl acetate, 4-methyl-pentan-2-one, dichloromethane, methanol, acetone, diisopropyl ether (DIPE), isobutyl acetate, tetralin, toluene, methylethyl ketone, N-methylpyrrolidone, tert-butylmethyl ether, nitromethane, pyridine, tetrahydrofuran.
Ca. 10 mg of the free acid of Compound 1 was weighed into 2 mL HPLC vials prior to the addition of solvent in 100-250 μL increments up to a maximum of 1750 μL. After each addition of solvent the samples were briefly shaken to encourage dissolution and visually inspected for signs of any remaining solid. Once the maximum volume of solvent had been added, 1.1 eq of 1M NaOH(aq) solution was also added, to give an indication as to which of the solvents would yield a suitable salt form. The samples were visually inspected prior to maturation for 2 days, after which all were inspected again. All the samples were then left to evaporate at RT to generate solid material.

salt of 4-(2-((4-bromophenyl)thio)acetamido)-1-phenethyl-1H-pyrazole-3-carboxylic acid and diethylamine [diethylamine salt]
Observations post stability (pH 1 for 4 h) (pH1 stability): No visual change | Chemical purity post stability (pH 1 for 4 h) (pH1 stability; HPLC): >99.9% (by peak area) | 1H NMR post stability (pH 1 for 4 h) (pH1 stability; cell continues: salt form is no longer present): Reduction in chemical shifts, indicating that salt form is no | Observation post stability (40° C./75% RH) [1]: No visible change | XRPD post stability (40° C./75% RH) [1]: Crystalline-no change in form | Chemical purity post stability (40° C./75% RH) ([1]; HPLC): >99.9% (by peak area) | DVS mass increase between 0-90% RH, first cycle ([2]; 0-90% RH, first cycle): Ca. 0.1% mass increase between 0-90% RH on the first cycle | DVS mass increase between 0-90% RH, second cycle ([2]; 0-90% RH, second cycle): Ca. 0.1% mass increase between 0-90% RH on the first cycle | XRPD post DVS ([2]; after double cycle 0-90% RH): Crystalline-no change in form

CCNC[C@H](O)[C@@H](O)[C@H](O)[C@H](O)CO.O=C(CSc1ccc(Br)cc1)Nc1cn(CCc2ccccc2)nc1C(=O)O [N-Ethylglucamine, salt of 4-(2-((4-bromophenyl)thio)acetamido)-1-phenethyl-1H-pyrazole-3-carboxylic acid and N-ethylglucamine]
Solubility assessment (dissolution in deionized water), salt from DIPE [3]: Partial | Solubility assessment (dissolution in deionized water), salt From Ethanol [3]: Partial

salt of 4-(2-((4-bromophenyl)thio)acetamido)-1-phenethyl-1H-pyrazole-3-carboxylic acid and magnesium acetate
Solubility assessment (dissolution in deionized water), salt From Ethanol [3]: No dissolution

salt of 4-(2-((4-bromophenyl)thio)acetamido)-1-phenethyl-1H-pyrazole-3-carboxylic acid and calcium acetate
Solubility assessment (dissolution in deionized water), salt From Ethanol [3]: No dissolution

salt of 4-(2-((4-bromophenyl)thio)acetamido)-1-phenethyl-1H-pyrazole-3-carboxylic acid and N-(phenylmethyl)benzeneethaneamine [N-(Phenylmethyl) benzeneethaneamine]
Solubility assessment (dissolution in deionized water), salt from DIPE [3]: No dissolution | Solubility assessment (dissolution in deionized water), salt From Ethanol [3]: No dissolution

CNC[C@H](O)[C@@H](O)[C@H](O)[C@H](O)CO.O=C(CSc1ccc(Br)cc1)Nc1cn(CCc2ccccc2)nc1C(=O)O [N-Methylglucamine, salt of 4-(2-((4-bromophenyl)thio)acetamido)-1-phenethyl-1H-pyrazole-3-carboxylic acid and N-methylglucamine]
Solubility assessment (dissolution in deionized water), salt From Ethanol [3]: Partial

salt of 4-(2-((4-bromophenyl)thio)acetamido)-1-phenethyl-1H-pyrazole-3-carboxylic acid and tromethamine
Solubility assessment (dissolution in deionized water), salt From Ethanol [3]: No dissolution

O=C(CSc1ccc(Br)cc1)Nc1cn(CCc2ccccc2)nc1C(=O)O [Compound 1, 4-(2-((4-bromophenyl)thio)acetamido)-1-phenethyl-1H-pyrazole-3-carboxylic acid]
Solvent Addition ([4]; solvent 1,1-Dimethoxyethane, increments up to maximum 1750 μL): 1750 µL | Solvent Addition ([4]; solvent 1,2-Dichloroethane, maximum 1750 μL): 1750 µL | Solvent Addition ([4]; solvent 1,4-Dioxane, maximum 1750 μL): 750 µL | Solvent Addition ([4]; solvent 2-Butanol, maximum 1750 μL): 1750 µL | Solvent Addition ([4]; solvent 2-Propanol, maximum 1750 μL): 1750 µL | Solvent Addition ([4]; solvent 4-methyl-pentan-2-one, maximum 1750 μL): 1750 µL | Solvent Addition ([4]; solvent Acetone, maximum 1750 μL): 1750 µL | Solvent Addition ([4]; solvent Acetonitrile, maximum 1750 μL): 1750 µL | Solvent Addition ([4]; solvent Anisole, maximum 1750 μL): 1750 µL | Solvent Addition ([4]; solvent Benzonitrile, maximum 1750 μL): 1750 µL | Solvent Addition ([4]; solvent Cumene, maximum 1750 μL): 1750 µL | Solvent Addition ([4]; solvent Cyclohexane, maximum 1750 μL): 1750 µL | Solvent Addition ([4]; solvent Dichloromethane, maximum 1750 μL): 1750 µL | Solvent Addition ([4]; solvent Diisopropyl ether, maximum 1750 μL): 1750 µL | Solvent Addition ([4]; solvent Ethanol, maximum 1750 μL): 1750 µL | Solvent Addition ([4]; solvent Ethyl acetate, maximum 1750 μL): 1750 µL | Solvent Addition ([4]; solvent Heptane, maximum 1750 μL): 1750 µL | Solvent Addition ([4]; solvent Hexane, maximum 1750 μL): 1750 µL | Solvent Addition ([4]; solvent Isobutyl Acetate, maximum 1750 μL): 1750 µL | Solvent Addition ([4]; solvent Isopropyl acetate, maximum 1750 μL): 1750 µL | Solvent Addition ([4]; solvent Methanol, maximum 1750 μL): 1750 µL | Solvent Addition ([4]; solvent Methylethyl ketone, maximum 1750 μL): 1750 µL | Solvent Addition ([4]; solvent N-Methylpyrrolidone, maximum 1750 μL): 250 µL | Solvent Addition ([4]; solvent Nitromethane, maximum 1750 μL): 1750 µL | Solvent Addition ([4]; solvent Pyridine, maximum 1750 μL): 1750 µL | Solvent Addition ([4]; solvent Tetrahydrofuran, maximum 1750 μL): 750 µL | Solvent Addition ([4]; solvent Tetralin, maximum 1750 μL): 1750 µL | Solvent Addition ([4]; solvent Toluene, maximum 1750 μL): 1750 µL | Solvent Addition ([4]; solvent Water, maximum 1750 μL): 1750 µL | Solvent Addition ([4]; solvent tert-Butylmethyl ether, maximum 1750 μL): 1750 µL

O=C(CSc1ccc(Br)cc1)Nc1cn(CCc2ccccc2)nc1C(=O)O.c1ccc(CNCCNCc2ccccc2)cc1 [N,N′-Dibenzylethylenediamine, salt of 4-(2-((4-bromophenyl)thio)acetamido)-1-phenethyl-1H-pyrazole-3-carboxylic acid and N,N′-dibenzylethylenediamine]
Solubility assessment (dissolution in deionized water), salt from MIBK ([3]; salt prepared from MIBK): No dissolution

— patent US11242321B2, “Salt forms of organic compound” (KAINOS MEDICINE INC., priority 2018, dated 2022)
